Key:
Format in all cases: in vivo, human
serum triglyceride (TG) = experiment: Phase II cross-over study of P5P alone and with lisinopril in hypertensive type 2 diabetic patients: triglycerides; details: for TG change, 16 wk vs. baseline (b): Lisinopril/P5P therapy, patients with TG ≧1.7 mmol/L; for reduction in serum TG levels vs. baseline: patients with elevated TG (>1.7 mmol/L) at baseline
Method: (§1) Objective—A phase II clinical study was conducted to determine the effects of pyridoxal-5′-phosphate in combination with lisinopril on blood pressure and metabolic function in hypertensive patients with type 2 diabetes.
(§2) Summary of Study Design—The phase II study was a randomized, parallel group, cross-over, double-blinded to study medication, placebo-controlled comparison of P5P BID at total daily doses of 100, 300, or 1000 mg alone and in combination with 20 mg lisinopril given once daily (QD). In order to protect against antihypertensive and metabolic carry-over effects of lisinopril, all patients were randomized in 2 different treatment sequences. Patients randomized in the first treatment sequence receive an 8-week treatment with lisinopril 20 mg and P5P (or placebo) and then an 8-week treatment with P5P alone (or placebo). Patients randomized in the second treatment sequence receive an 8-week treatment with P5P alone and then an 8-week treatment with lisinopril 20 mg and P5P (or placebo). In each treatment sequence, all patients were randomized to P5P at the different prespecified dosages.
(§3) Mean trough sitting and standing BP were measured at each visit. Twenty-four hour ambulatory BP monitoring (ABPM) were performed at Visit 2 prior to randomization (end of washout period) and after week 8 (Visit 5) and week 16 (Visit 8) weeks of active therapy. Laboratory tests were performed at screening (Visit 1), prior to randomization (Visit 2), at week 2 (Visit 3a), week 8 (Visit 5), week 10 (Visit 6a), and at week 16 (Visit 8).
Treatment Plan—Two to Four-week Washout (Baseline) Period. Patients were instructed on the proper procedure for discontinuing their current antihypertensive medications (discontinuation or tapering) according to the manufacturer's label specifications. If a patient's current antihypertensive treatment needed to be tapered earlier, the Investigator complied with the corresponding timelines before randomization. With the exception of any tapering off of prior therapy, if any, no other anti-hypertensive medication was given to the patient during the washout period. Patients continued any existing diabetic treatment with sulfonylureas (tolbutamide, tolazamide, acetohexamide, chlorpropamide and second generation glyburide, glipizide, glimepiride), D-Phenylalanine derivatives, metformin, thiazolidinediones, acarbose, miglitol, and/or insulin throughout the study. Patients received placebo to be taken twice daily during the washout period. Standard diabetic medication was maintained throughout study. The duration of the washout period was two to four weeks, at the discretion of the Investigator taking into consideration whether the patient's blood pressure had stabilized following removal of any prior antihypertensive medication. […]

serum LDL = experiment: Phase II cross-over study of P5P alone and with lisinopril in hypertensive type 2 diabetic patients: LDL; details: for LDL change, 16 wk vs. baseline (b): LDL non-stratified data; for reduction in serum LDL levels: patients having elevated LDL levels (>2.59 mmol/L)
Method: as §1, §2, §3
(§4) Treatment Plan—Two to Four-week Washout (Baseline) Period. Patients were instructed on the proper procedure for discontinuing their current antihypertensive medications (discontinuation or tapering) according to the manufacturer's label specifications. If a patient's current antihypertensive treatment needed to be tapered earlier, the Investigator complied with the corresponding timelines before randomization. With the exception of any tapering off of prior therapy, if any, no other anti-hypertensive medication was given to the patient during the washout period. Patients continued any existing diabetic treatment with sulfonylureas (tolbutamide, tolazamide, acetohexamide, chlorpropamide and second generation glyburide, glipizide, glimepiride), D-Phenylalanine derivatives, metformin, thiazolidinediones, acarbose, miglitol, and/or insulin throughout the study. Patients received placebo to be taken twice daily during the washout period. Standard diabetic medication was maintained throughout study. The duration of the washout period was two to four weeks, at the discretion of the Investigator taking into consideration whether the patient's blood pressure had stabilized following removal of any prior antihypertensive medication.
(§5) Active (Study) Medication Period: After the washout period, eligible patients were randomized to one of the 2 following sequences of treatment for 16 weeks.
(§6) Week 0 to 8: Treatment period (P5P alone (or placebo) or P5P (or placebo) and Lisinopril)
(§7) Week 8 to 16: Treatment period (P5P alone (or placebo) or P5P (or placebo) and Lisinopril)
(§8) Study Groups—The patients were randomized into one of […] groups:
(§9) Sequence 1 P5P 300 mg and then P5P 300 mg+Lisinopril 20 mg
(§10) Sequence 2 P5P 300 mg+Lisinopril 20 mg and then P5P 300 mg alone
(§11) All medications were taken at the same time each day during washout and treatment periods:
(§12) Other Efficacy Endpoints—Analytical efficacy measurements, including markers of metabolic function (insulinemia, fasting serum glucose, glycated hemoglobin, LDL, HDL, non-HDL and triglycerides), endothelial function (ICAM-1, VCAM-1, E-selectin and albuminuria), kidney function (creatinine, glomular filtration rate), CRP and homocysteine, were conducted on blood samples taken on Visits 2, 5 and 8. Samples were sent to a central laboratory for analysis.

[1] = test system: total serum cholesterol (TC); experiment: Phase II cross-over study of P5P alone and with lisinopril in hypertensive type 2 diabetic patients: total cholesterol; details: for reduction in serum TC levels (placebo corrected): patients having elevated TC levels (>5.15 mmol/L)
Method: as §1, §2, §3, §4, §5, §6, §7, §8, §9, §10, §11, §12

Non-HDL = experiment: Phase II cross-over study of P5P alone and with lisinopril in hypertensive type 2 diabetic patients: non-HDL
Method: as §1, §2, §3, §4, §5, §6, §7, §8, §9, §10, §11, §12

[2] = P5P 300 mg, patients with LDL >2.59 mmol/L
[3] = P5P 300 mg, patients with TC >5.18 mmol/L
[4] = P5P 300 mg, patients with Non HDL >3.34 mmol/L

Which results are given for `Cc1ncc(COP(=O)(O)O)c(C=O)c1O` [P5P, pyridoxal-5′-phosphate]?
TG change, 16 wk vs. baseline (b) (serum triglyceride (TG); P5P 300 mg daily (BID)): −0.70 mmol/L (p = 0.04)b; reduction in serum TG levels vs. baseline (serum triglyceride (TG); P5P 300 mg): about 0.70 mmol/L; TG change, 16 wk vs. baseline (b) (serum triglyceride (TG); P5P 1000 mg daily (BID)): −0.56 mmol/L (p = 0.12)b; reduction in serum TG levels vs. baseline (serum triglyceride (TG); P5P 1000 mg): about 0.56 mmol/L; LDL change, 16 wk vs. baseline (b) (serum LDL; P5P 300 mg): −0.15 mmol/L (p = 0.194)b; reduction in serum LDL levels (serum LDL; P5P 300 mg): about 0.41 mmol/L; LDL change (serum LDL; [2]): −0.41 mmol/L (p = 0.04); LDL reduction (serum LDL; [2]): (12% reduction); LDL change, 16 wk vs. baseline (b) (serum LDL; P5P 1000 mg): −0.15 mmol/L (p = 0.197)b; reduction in serum LDL levels (serum LDL; P5P 1000 mg): about 0.53 mmol/L; LDL change (serum LDL; P5P 1000 mg, patients with LDL >2.59 mmol/L): −0.53 mmol/L (p = 0.075); average reduction in serum LDL levels (placebo corrected) (serum LDL; patients taking 300 mg or 1000 mg of P5P): 0.27 mmol/L; TC change vs baseline (b) ([1]; P5P 300 mg, TC non-stratified): −0.18 mmol/L (p = 0.273)b; reduction in serum TC levels (placebo corrected) ([1]; P5P 300 mg): about 0.91 mmol/L; TC change [1, 3]: −0.91 mmol/L (p = 0.02); TC reduction vs baseline (b) [1, 3]: (15.7%)b; TC change vs baseline (b) ([1]; P5P 1000 mg, TC non-stratified): −0.29 mmol/L (p = 0.075)b; reduction in serum TC levels (placebo corrected) ([1]; P5P 1000 mg): about 1.03 mmol/L; TC change vs baseline (b) ([1]; P5P 1000 mg, patients with TC >5.18 mmol/L): −1.03 mmol/L (p = 0.001)b; Non-HDL change vs baseline (b) (Non-HDL; P5P 300 mg, non-stratified, calculated number, not measured in plasma): −0.21 mmol/L (p=)b; Non-HDL change (Non-HDL; [4]): −0.68 mmol/L (p = 0.029); Non-HDL reduction vs baseline (b) (Non-HDL; [4]): (15%)b; reduction in non-HDL compared to baseline (Non-HDL; P5P 300 mg, patients with non-HDL >3.34 mmol/L at baseline): 0.68 mmol/L; Non-HDL change vs baseline (b) (Non-HDL; P5P 1000 mg, non-stratified, calculated number, not measured in plasma): −0.26 mmol/L (p = 0.089)b; Non-HDL change vs baseline (b) (Non-HDL; P5P 1000 mg, patients with Non HDL >3.34 mmol/L): −0.71 mmol/L (p = 0.007)b; decrease in non-HDL vs. baseline (Non-HDL; P5P 1000 mg, patients with non-HDL. 3.34 mmol/L): 0.71 mmol/L
